Here are results for 19 compounds from patent US20250144067A1, “PERSONALIZED STARVATION THERAPY FOR CANCER” (Faeth Therapeutics, Inc., priority 2021, published 2025).

Counter-ions that a name gives are not always drawn. Like-named read-outs stand apart in the source and are kept apart here.

For assay [1], the system named is NCI-H292 lung cancer cells. The experiment in a line: FDA drug screening, complete media vs cholesterol-free media with simvastatin (TABLE 2). In kind it is cell-based, human.
The test system of assay [2] is NCI-H292 lung cancer cells. The assay is described as follows: FDA drug screening, complete media vs cholesterol-free media without statin (TABLE 1). It is filed as cell-based, human.
The mark [3] stands for this setting: NCI-H292 cells, cholesterol-free media with simvastatin 0.04 μM, FDA drug library screen (TABLE 2).
[4] abbreviates: NCI-H292 cells, complete media, FDA drug library screen (TABLE 2).
The mark [5] stands for this setting: complete media minus cholesterol-free media + simvastatin (0.04 μM), >0 enhanced anti-cancer activity, about 0 neutral, <0 antagonist.
The mark [6] stands for this setting: Complete minus Cholesterol-free, >0 enhanced anti-cancer activity, about 0 neutral, <0 antagonist.
Setting [7] is: NCI-H292 cells, cholesterol-free media without statin.
[8] abbreviates: Complete minus Cholesterol-free, […].
Where [9] appears, read: complete vs cholesterol-free media, greater than 0 enhanced anti-cancer activity, about 0 neutral, below 0 antagonists.
Where [10] appears, read: NCI-H292 cells, cholesterol-free media without statin, FDA drug library screen.
The mark [11] stands for this setting: NCI-H292 cells, complete media, FDA drug library screen.
Setting [12] is: NCI-H292 cells, drug in cholesterol-free media with simvastatin 0.04 μM.
[13] abbreviates: NCI-H292 cells, drug in complete media.
Where [14] appears, read: complete media vs cholesterol-free media + simvastatin (0.04 μM), >0 enhanced anti-cancer activity, about 0 neutral, <0 antagonist.
Setting [15] is: Complete minus Cholesterol-free, greater than 0 enhanced anti-cancer activity, about 0 neutral, below 0 antagonist.
[16] abbreviates: NCI-H292 cells, FDA drug library screen, cholesterol-free media without statin.
The mark [17] stands for this setting: NCI-H292 cells, FDA drug library screen, complete media.
The mark [18] stands for this setting: NCI-H292 cells, FDA library drug in cholesterol-free media with simvastatin 0.04 μM.
[19] abbreviates: NCI-H292 cells, FDA library drug in complete media.

With `OCC(CO)N[C@H]1C[C@](O)(CO)[C@@H](O)[C@H](O)[C@H]1O` [Voglibose], in assay [1], the “Cholesterol-free media + simvastatin (0.04 μM)” value is on record as 0.9097, the “Complete Media” value was found to be 0.6837 and the Difference is given as −0.23. For the same compound, in assay [2], the Cholesterol-free was determined as 1.147, the Complete was determined as 1.027 and the Difference was −0.12.
Turning to `Cc1[nH]c(=O)c(C#N)cc1-c1ccc2nccn2c1` [Olprinone (Hydrochloride)], the “Cholesterol-free media + simvastatin (0.04 μM)” value in assay [1] (setting [3]) is 1.653. For the same compound, in assay [1] (setting [4]), the “Complete Media” value is on record as 1.64. Besides, the Difference in assay [1] (setting [5]) is −0.01; in assay [2] (setting [6]) it was −0.27. This compound also showed a Cholesterol-free in assay [2] (setting [7]) of 1.142. In addition, the Complete in assay [2] (NCI-H292 cells, complete media) is recorded as 0.8745.
With `Oc1cc(Cl)ccc1Oc1ccc(Cl)cc1Cl` [Triclosan], in assay [1] (NCI-H292 cells, cholesterol-free media with simvastatin 0.04 μM, […]), the “Cholesterol-free media + simvastatin (0.04 μM)” value amounted to 1.015. The “Complete Media” value in assay [1] (NCI-H292 cells, complete media, […]) is recorded as 1.093. For the same compound, the Difference is recorded as 0.08 in assay [1] (complete media minus cholesterol-free media + simvastatin, […]) and −0.91 in assay [2] (setting [8]). The compound also displayed a Cholesterol-free in assay [2] (NCI-H292 cells in cholesterol-free media without statin) of 1.986. The compound also returned a Complete in assay [2] (NCI-H292 cells in complete media) of 1.081.
In the case of Niraparib (tosylate), in assay [1], the “Cholesterol-free media + simvastatin (0.04 μM)” value is recorded as 1.448, the “Complete Media” value was 1.091 and the Difference is −0.36. In assay [2], this compound displayed a Cholesterol-free of 1.671 and a Difference of −0.63.
Turning to `C[N+](C)(C)CCOP(=O)([O-])OP(=O)([O-])OC[C@H]1O[C@@H](n2ccc(N)nc2=O)[C@H](O)[C@@H]1O.[Na+]` [Citicoline (sodium)], the “Cholesterol-free media + simvastatin (0.04 μM)” value in assay [1] (setting [3]) worked out at 1.337. In addition, in assay [1] (setting [4]), the “Complete Media” value is on record as 1.292. For the same compound, the Difference was −0.04 in assay [1] (setting [5]) and −0.34 in assay [2] (setting [9]). The Cholesterol-free in assay [2] (setting [7]) amounted to 1.151. Moreover, in assay [2] (NCI-H292 cells, complete media), the Complete is 0.8125.
With `O=C(O)/C=C/c1ccc(Cn2ccnc2)cc1` [Ozagrel (sodium)], the “Cholesterol-free media + simvastatin (0.04 μM)” value in assay [1] (setting [3]) turned out to be 1.082. The “Complete Media” value in assay [1] (setting [4]) amounted to 1.026. Besides, the results for the Difference in assay [1] (setting [5]) and in assay [2] (setting [6]) were −0.06 and −0.07, respectively. This compound showed a Cholesterol-free in assay [2] (setting [10]) of 1.134. Besides, the Complete in assay [2] (setting [11]) is 1.068.
On to `CC(=O)Nc1ccc(C(=O)O)cc1.CC(=O)Nc1ccc(C(=O)O)cc1.CC(=O)Nc1ccc(C(=O)O)cc1.CC(O)CN(C)C.CC(O)CN(C)C.CC(O)CN(C)C.O=c1[nH]cnc2c1ncn2[C@@H]1O[C@H](CO)[C@@H](O)[C@H]1O` [Inosine pranobex], for which the “Cholesterol-free media + simvastatin (0.04 μM)” value in assay [1] (setting [12]) stood at 1.233. Moreover, the “Complete Media” value in assay [1] (setting [13]) was found to be 0.9799. The Difference in assay [1] (complete media vs cholesterol-free media + simvastatin (0.04 μM), […]) was −0.25; in assay [2] (setting [8]) it was −0.24. The same compound had a Cholesterol-free in assay [2] (setting [7]) of 1.096. Also, the Complete in assay [2] (NCI-H292 cells, complete media) was found to be 0.8599.
`COc1cc2nccc(Oc3ccc(NC(=O)NC4CC4)c(Cl)c3)c2cc1C(N)=O` [Lenvatinib]: in assay [1] (setting [12]), the “Cholesterol-free media + simvastatin (0.04 μM)” value amounted to 1.178. For the same compound, the “Complete Media” value in assay [1] (setting [13]) turned out to be 1.01. For the same compound, the Difference in assay [1] (setting [14]) is listed as −0.17; in assay [2] (setting [15]) it was −0.11. The Cholesterol-free in assay [2] (setting [16]) stood at 1.182. In assay [2] (setting [17]), this compound came in with a Complete of 1.077.
For the compound `CC(=O)SCC(Cc1ccccc1)C(=O)NCC(=O)OCc1ccccc1` (stereo not shown) [Racecadotril], in assay [1] (setting [12]), the “Cholesterol-free media + simvastatin (0.04 μM)” value was determined as 1.092. The “Complete Media” value in assay [1] (setting [13]) was 0.8523. For the same compound, the Difference is listed as −0.24 in assay [1] (setting [14]) and −0.40 in assay [2] (setting [9]). The Cholesterol-free in assay [2] (setting [7]) was 1.294. The Complete in assay [2] (NCI-H292 cells, complete media) is listed as 0.8911.
With `C=C[C@H]1C[N@@]2CC[C@H]1C[C@H]2[C@H](O)c1ccnc2ccc(OC)cc12` [Quinine], the Difference in assay [1] (setting [14]) is reported as −0.10; in assay [2] (setting [9]), −0.37. In addition, in assay [2] (setting [7]), the Cholesterol-free amounted to 1.498.
Turning to `CCCC(=O)O[C@]1(C(=O)COC(C)=O)CC[C@H]2[C@@H]3C[C@H](F)C4=CC(=O)C=C[C@]4(C)[C@@]3(F)[C@@H](O)C[C@@]21C` [Difluprednate], the “Cholesterol-free media + simvastatin (0.04 μM)” value in assay [1] (NCI-H292 cells, cholesterol-free media with simvastatin 0.04 μM, cell growth value in FDA drug screen) was 1.197. Moreover, the “Complete Media” value in assay [1] (NCI-H292 cells, complete media, cell growth value in FDA drug screen) is 1.264. Besides, the Difference is 0.07 in assay [1] (complete media minus cholesterol-free media + simvastatin, >0 enhanced anti-cancer activity, about 0 neutral, <0 antagonist) and −0.21 in assay [2] (setting [6]). Besides, the Cholesterol-free in assay [2] (setting [7]) is recorded as 0.9273. In assay [2] (NCI-H292 cells, complete media), this compound yielded a Complete of 0.7168.
With `COc1cc(/C=C/C(=O)O)ccc1O` [Ferulic acid], the “Cholesterol-free media + simvastatin (0.04 μM)” value in assay [1] (setting [18]) turned out to be 1.055. Moreover, in assay [1] (setting [19]), the “Complete Media” value worked out at 0.7118. Also, the Difference in assay [1] (setting [14]) is given as −0.34; in assay [2] (setting [6]) it was −0.23. Besides, the Cholesterol-free in assay [2] (setting [7]) is 1.087. The compound also gave a Complete in assay [2] (NCI-H292 cells, complete media) of 0.8516.
For `O=C1Nc2ccccc2/C1=C1/Nc2ccccc2C1=O` [Indirubin], in assay [1] (setting [18]), the “Cholesterol-free media + simvastatin (0.04 μM)” value worked out at 0.8483. Moreover, the “Complete Media” value in assay [1] (setting [19]) is reported as 0.5782. The values for the Difference in assay [1] (setting [14]) and in assay [2] (setting [6]) were −0.27 and −0.04, respectively. In assay [2] (setting [10]), the Cholesterol-free turned out to be 0.7727. Besides, the Complete in assay [2] (setting [11]) is given as 0.7337.
For `Cc1cccc(Nc2ccncc2S(=O)(=O)NC(=O)NC(C)C)c1` [Torsemide], the “Cholesterol-free media + simvastatin (0.04 μM)” value in assay [1] (setting [3]) is 1.055. Besides, the “Complete Media” value in assay [1] (setting [4]) is 0.9909. The Difference in assay [1] (setting [5]) was −0.06; in assay [2] (setting [15]) it was −0.16. In assay [2] (setting [16]), the Cholesterol-free came out at 1.07. The compound further gave a Complete in assay [2] (setting [17]) of 0.914.
`CC(=O)O[C@]1(C(C)=O)CC[C@H]2[C@@H]3C=C(C)C4=CC(=O)CC[C@@H]4[C@H]3CC[C@@]21C` [Nomegestrol acetate]: the “Cholesterol-free media + simvastatin (0.04 μM)” value in assay [1] (setting [3]) was found to be 0.9875. Besides, the “Complete Media” value in assay [1] (setting [4]) was found to be 0.9519. Moreover, the Difference in assay [1] (setting [5]) was −0.04; in assay [2] (setting [15]), −0.14. The compound further registered a Cholesterol-free in assay [2] (setting [16]) of 0.9161. Besides, in assay [2] (setting [17]), the Complete is given as 0.7734.
Consider `CO[C@H]1/C=C/O[C@@]2(C)Oc3c(C)c([O-])c4c(O)c(cc(O)c4c3C2=O)NC(=O)/C(C)=C\C=C\[C@H](C)[C@H](O)[C@@H](C)[C@@H](O)[C@@H](C)[C@H](OC(C)=O)[C@@H]1C.[Na+]` [Rifamycin (sodium)], for which the “Cholesterol-free media + simvastatin (0.04 μM)” value in assay [1] (setting [18]) is reported as 1.045. The “Complete Media” value in assay [1] (setting [19]) was found to be 0.7505. Moreover, the values for the Difference in assay [1] (setting [14]) and in assay [2] (setting [9]) were −0.29 and −0.44, respectively. Also, the Cholesterol-free in assay [2] (setting [7]) came to 2.314. Further, the Complete in assay [2] (NCI-H292 cells, complete media) turned out to be 1.878.
On to `COC(=O)N[C@H](C(=O)N1CCC[C@H]1C(=O)Nc1ccc([C@@H]2CC[C@@H](c3ccc(NC(=O)[C@@H]4CCCN4C(=O)[C@@H](NC(=O)OC)C(C)C)cc3)N2c2ccc(C(C)(C)C)cc2)cc1)C(C)C` [Ombitasvir], for which the “Cholesterol-free media + simvastatin (0.04 μM)” value in assay [1] (setting [3]) came out at 0.6017. Further, the “Complete Media” value in assay [1] (setting [4]) came to 0.5358. Also, the Difference in assay [1] (complete media minus cholesterol-free media + simvastatin (0.04 μM), […]) is −0.07; in assay [2] (setting [8]) it was −0.17. This compound came in with a Cholesterol-free in assay [2] (setting [16]) of 1.001. The compound also showed a Complete in assay [2] (setting [17]) of 0.8331.
As to `Cc1ccccc1C(=O)Nc1ccc(C(=O)N2CCCC(O)c3cc(Cl)ccc32)c(C)c1` (stereo not shown) [Tolvaptan], the “Cholesterol-free media + simvastatin (0.04 μM)” value in assay [1] (setting [18]) stood at 2.102. Also, in assay [1] (setting [19]), the “Complete Media” value is listed as 1.367. The Difference in assay [1] (setting [14]) is −0.73; in assay [2] (setting [6]), −0.06. The Cholesterol-free in assay [2] (setting [10]) is 0.8732. The Complete in assay [2] (setting [11]) stood at 0.8126.
Turning to Fluvoxamine (maleate), in assay [1] (setting [3]), the “Cholesterol-free media + simvastatin (0.04 μM)” value was determined as 0.9929. Further, in assay [1] (setting [4]), the “Complete Media” value came to 0.9426. For the same compound, the Difference is −0.05 in assay [1] (setting [5]) and −0.11 in assay [2] (setting [15]). The compound further came in with a Cholesterol-free in assay [2] (setting [16]) of 1.142.
